Assay: Measurement of mRNA encapsulation in lipid nanoparticles (Quant-iT Ribogreen)
Type: physicochemical
Settings: Leptin mRNA in LNP
Procedure: All equipment and disposable supplies are certified free of RNase activity by the manufacturer or rendered RNase free by use of the RNaseZap reagent (LifeTechnologies). mRNA is encapsulated at a cationic lipid amine to mRNA phosphate (N:P) molar ratio of 4:1. Lipids (cationic lipid, DSPC, cholesterol and lipidated PEG or stealth lipid) are dissolved in ethanol. The molar ratios are 40:10:38:2, respectively. The mixture is sonicated briefly, then gently agitated for 5 minutes and then maintained at 37° C. until use. mRNA is exchanged into citrate buffer pH 5.8-6.0 by use of Amicon Ultra-15 centrifugal concentrators, and the final concentration is adjusted to 0.5 mg/ml and held at 37° C. until use. An equal volume of lipids in ethanol, mRNA in citrate buffer, and citrate buffer alone are drawn into disposable syringes.
Tubing leading from syringes containing lipids and mRNA are attached to the T junction, and tubing leading from the syringe containing citrate buffer alone is paired with the tubing exiting the T-junction over a collection vessel containing a stir bar on an active stir plate. Syringes are placed in a syringe pump set to expel contents at a flow rate of 1 ml per minute. The pump is activated, and the collected mRNA in lipid nanoparticles is transferred to SnakeSkin dialysis tubing (10,000 MWCO, Thermo Scientific). Material is dialyzed against RNAse- and pyrogen-free 1× phosphate buffered saline overnight at 4° C.
Percent encapsulation of mRNA in lipid nanoparticles is determined using the Quant-iT Ribogreen RNA Assay kit (Life Technologies). The LNP-mRNA suspension is assayed in buffer (mRNA outside the particle), and buffer plus Triton X-100 detergent (total mRNA). The difference calculated is the mRNA inside the particle. Prepare a 1000 ng/mL stock from the RNA provided in the kit and use this to generate a standard curve (0 ng/ml, 15.63-1000 ng/ml) in TE and TE+0.75% Triton X-100. Prepare LNP-mRNA samples in TE buffer and TE buffer+0.75% Triton X-100 with appropriate dilution so that reading is in the range of standard curve (400-2,000 fold). In a 384-well plate (Costar non-treated #3573) add 0.04 ml of standard (in duplicate) or sample (in triplicate) per well. Dilute Ribogreen reagent 240-fold in TE buffer and add 0.06 ml per well. Mix contents of wells and measure fluorescence (excitation=480 nm, emission=520 nm). Subtract background values (no RNA) from standard and test sample values and determine the concentrations of RNA in the samples using the standard curves. Determine the percent encapsulation of the sample by dividing the difference in concentrations between sample+triton and sample in buffer alone by the sample+triton concentration.

Compound: CCCCC/C=C\C/C=C\CCCCCCCC(=O)OCC(COC(=O)CCC(OCCCCCCCC)OCCCCCCCC)COC(=O)OC1CC(C)(C)N(C)C(C)(C)C1 (stereo not drawn) [Example 52, (9Z,12Z)-3-((4,4-bis(octyloxy)butanoyl)oxy)-2-(((((1,2,2,6,6-pentamethylpiperidin-4-yl)oxy)carbonyl)oxy)methyl)propyl octadeca-9,12-dienoate]
- % encapsulation mRNA Leptin: 32.2%

Compound: CCCCC/C=C\C/C=C\CCCCCCCC(=O)OCC(COC(=O)CCC(OCCCCCCCC)OCCCCCCCC)COC(=O)NCCCN(C)C (stereo not drawn) [Example 53, (9Z,12Z)-3-((4,4-bis(octyloxy)butanoyl)oxy)-2-((((3-(dimethylamino)propyl)carbamoyl)oxy)methyl)propyl octadeca-9,12-dienoate]
- % encapsulation mRNA Leptin: 93.5%

Compound: CCCCC/C=C\C/C=C\CCCCCCCC(=O)OCC(COC(=O)CCCCCCCCC(=O)OCCCCCCCC)COC(=O)C1(C)CCN(C)C1 (stereo not drawn) [Example 56, 1-(3-((1,3-dimethylpyrrolidine-3-carbonyl)oxy)-2-(((9Z,12Z)-octadeca-9,12-dienoyloxy)methyl)propyl) 10-octyl decanedioate]
- % encapsulation mRNA Leptin: 83.3%

Compound: CCCCCCCCOC(CCC(=O)OCC(COC(=O)CCC(OCCCCCCCC)OCCCCCCCC)COC(=O)C1CCN(C)C1)OCCCCCCCC (stereo not drawn) [Example 57, 2-(((1-methylpyrrolidine-3-carbonyl)oxy)methyl)propane-1,3-diyl bis(4,4-bis(octyloxy)butanoate)]
- % encapsulation mRNA Leptin: 95.2%

Compound: CCCCCCCCOC(CCC(=O)OCC(COC(=O)CCC(OCCCCCCCC)OCCCCCCCC)COC(=O)C1(C)CCN(C)C1)OCCCCCCCC (stereo not drawn) [Example 58, 2-(((1,3-dimethylpyrrolidine-3-carbonyl)oxy)methyl)propane-1,3-diyl bis(4,4-bis(octyloxy)butanoate)]
- % encapsulation mRNA Leptin: 86.0%

Compound: CCCCCCCCOC(CCC(=O)OCC(COC(=O)CCC(OCCCCCCCC)OCCCCCCCC)COC(=O)CCN(C)C)OCCCCCCCC [Example 59, 2-(((3-(dimethylamino)propanoyl)oxy)methyl)propane-1,3-diyl bis(4,4-bis(octyloxy)butanoate)]
- % encapsulation mRNA Leptin: 76.6%

Compound: CCCCCCCCOC(CCCCC(=O)OCC(COC(=O)CCCCC(OCCCCCCCC)OCCCCCCCC)COC(=O)C1CCN(C)C1)OCCCCCCCC (stereo not drawn) [Example 60, 2-(((1-methylpyrrolidine-3-carbonyl)oxy)methyl)propane-1,3-diyl bis(6,6-bis(octyloxy)hexanoate)]
- % encapsulation mRNA Leptin: 89.1%

Compound: CCCCCCCCCCCCCCCC(=O)OCC(COC(=O)CCCCC(COC(=O)CCCCCCC)COC(=O)CCCCCCC)COC(=O)C1CCN(C)C1 (stereo not drawn) [Example 63, 2-(5-(3-((1-methylpyrrolidine-3-carbonyl)oxy)-2-((palmitoyloxy)methyl)propoxy)-5-oxopentyl)propane-1,3-diyl dioctanoate]
- % encapsulation mRNA Leptin: 18.8%

Compound: CCCCCCCCCCCCCC(=O)OCC(COC(=O)CCCCC(COC(=O)CCCCCCC)COC(=O)CCCCCCC)COC(=O)C1CCN(C)C1 (stereo not drawn) [Example 64, 2-(5-(3-((1-methylpyrrolidine-3-carbonyl)oxy)-2-((tetradecanoyloxy)methyl)propoxy)-5-oxopentyl)propane-1,3-diyl dioctanoate]
- % encapsulation mRNA Leptin: 87.9%

Compound: CCCCCCCCCCCCCC(=O)OCC(COC(=O)CCC(OCCCCCCCC)OCCCCCCCC)COC(=O)C1CCN(C)C1 (stereo not drawn) [Example 66, 3-((4,4-bis(octyloxy)butanoyl)oxy)-2-((tetradecanoyloxy)methyl)propyl 1-methylpyrrolidine-3-carboxylate]
- % encapsulation mRNA Leptin: 70.5%

Compound: CCCCCCCCCCCCCCCC(=O)OCC(COC(=O)CCC(OCCCCCCCC)OCCCCCCCC)COC(=O)C1CCN(C)C1 (stereo not drawn) [Example 67, 3-((4,4-bis(octyloxy)butanoyl)oxy)-2-((palmitoyloxy)methyl)propyl 1-methylpyrrolidine-3-carboxylate]
- % encapsulation mRNA Leptin: 62.8%

Compound: CCCCCCCCOC(CCC(=O)OCC(COC(=O)CCCCCCC(=O)OC)COC(=O)C1CCN(C)C1)OCCCCCCCC (stereo not drawn) [Example 68, 1-(3-((4,4-bis(octyloxy)butanoyl)oxy)-2-(((1-methylpyrrolidine-3-carbonyl)oxy)methyl)propyl) 8-methyl octanedioate]
- % encapsulation mRNA Leptin: 5.9%

Compound: CCCCCCCCOC(=O)CCCCCCCCC(=O)OCC(COC(=O)CCC(OCCCCCCCC)OCCCCCCCC)COC(=O)C1CCN(C)C1 (stereo not drawn) [Example 69, 1-(3-((4,4-bis(octyloxy)butanoyl)oxy)-2-(((1-methylpyrrolidine-3-carbonyl)oxy)methyl)propyl) 10-octyl decanedioate]
- % encapsulation mRNA Leptin: 79.3%

Compound: CCCCCCCCCCCCC(CCOC(=O)OCC(COC(=O)CCCCCCC(=O)OC)COC(=O)CCC(OCCCCCCCC)OCCCCCCCC)OC(=O)OCCCN(C)C (stereo not drawn) [Example 70, 1-(16-(((4,4-bis(octyloxy)butanoyl)oxy)methyl)-9-dodecyl-2-methyl-7,13-dioxo-6,8,12,14-tetraoxa-2-azaheptadecan-17-yl) 8-methyl octanedioate]
- % encapsulation mRNA Leptin: 92.1%

Compound: CCCCCCCCOC(=O)CCCCCCCCC(=O)OCC(COC(=O)CCCCC(OCC(CCC)CCC)OCC(CCC)CCC)COC(=O)C1(C)CCN(C)CC1 (stereo not drawn) [Example 71, 1-(3-((6,6-bis((2-propylpentyl)oxy)hexanoyl)oxy)-2-(((1,4-dimethylpiperidine-4-carbonyl)oxy)methyl)propyl) 10-octyl decanedioate]
- % encapsulation mRNA Leptin: 96.5%

Compound: CCCC(CCC)COC(CCCCC(=O)OCC(COC(=O)CCCCCCC(=O)OC)COC(=O)C1(C)CCN(C)CC1)OCC(CCC)CCC (stereo not drawn) [Example 72, 1-(3-((6,6-bis((2-propylpentyl)oxy)hexanoyl)oxy)-2-(((1,4-dimethylpiperidine-4-carbonyl)oxy)methyl)propyl) 8-methyl octanedioate]
- % encapsulation mRNA Leptin: 31.2%

Compound: COC(=O)CCCCCCC(=O)OCC(COC(=O)CCCCCCC(=O)OC)COC(=O)C1CCN(C)C1 (stereo not drawn) [Example 73, 8-dimethyl O′1,O1-(2-(((1-methylpyrrolidine-3-carbonyl)oxy)methyl)propane-1,3-diyl)dioctanedioate]
- % encapsulation mRNA Leptin: 9.3%

Compound: CCCCCCCCCCCCC(CCOC(=O)OCC(COC(=O)CCCCCCC(=O)OC)COC(=O)CCCCCCC(=O)OC)OC(=O)OCCCN(C)C (stereo not drawn) [Example 74, O′1,O1-(2-(7-dodecyl-14-methyl-3,9-dioxo-2,4,8,10-tetraoxa-14-azapentadecyl)propane-1,3-diyl) 8-dimethyl dioctanedioate]
- % encapsulation mRNA Leptin: 23.0%

From patent US10059655B2, “Lipids and lipid compositions for the delivery of active agents” (priority 2013, dated 2018)
